According to ChEMBL document CHEMBL4649982, “Selective targeting of Bromodomains of the Bromodomain-PHD Fingers family impairs osteoclast differentiation” (ACS Chem Biol, 2017):
Values joined by “and” are separate entries in the source; they are usually repeats but may differ in a detail not shown here. Equal entries are not always repeated.

How the values were obtained:
[1] = biological target: Transcription initiation factor TFIID subunit 1 (Homo sapiens) (UniProt P21675); details: Compound concentration 10.0 uM, Protein concentration 2.0 uM
[2] = biological target: Transcription intermediary factor 1-beta (Homo sapiens) (UniProt Q13263); details: Compound concentration 10.0 uM, Protein concentration 2.0 uM
[3] = biological target: Bromodomain testis-specific protein (Homo sapiens) (UniProt Q58F21); details: Compound concentration 10.0 uM, Protein concentration 2.0 uM
[4] = biological target: Bromodomain-containing protein 4 (Homo sapiens) (UniProt O60885); details: Compound concentration 10.0 uM, Protein concentration 2.0 uM
[5] = biological target: Bromodomain-containing protein 3 (Homo sapiens) (UniProt Q15059); details: Compound concentration 10.0 uM, Protein concentration 2.0 uM
[6] = biological target: Bromodomain-containing protein 2 (Homo sapiens) (UniProt P25440); details: Compound concentration 10.0 uM, Protein concentration 2.0 uM
[7] = biological target: Protein polybromo-1 (Homo sapiens) (UniProt Q86U86); details: Compound concentration 10.0 uM, Protein concentration 2.0 uM
[8] = biological target: Bromodomain-containing protein 1 (Homo sapiens) (UniProt O95696); details: Compound concentration 10.0 uM, Protein concentration 2.0 uM
[9] = biological target: Transcription initiation factor TFIID subunit 1 (Homo sapiens) (UniProt P21675); details: Compound concentration 10.0 uM, Protein concentration 2.0 uM; remark: listed apart in the source
[10] = biological target: T1, E3 ubiquitin-protein ligase TRIM33 (Homo sapiens) (UniProt Q9UPN9); assay: Thermal Shift Assay. Domain start/stop: D882-P1073; details: Compound concentration 10.0 uM
T1 sequence (whole entry): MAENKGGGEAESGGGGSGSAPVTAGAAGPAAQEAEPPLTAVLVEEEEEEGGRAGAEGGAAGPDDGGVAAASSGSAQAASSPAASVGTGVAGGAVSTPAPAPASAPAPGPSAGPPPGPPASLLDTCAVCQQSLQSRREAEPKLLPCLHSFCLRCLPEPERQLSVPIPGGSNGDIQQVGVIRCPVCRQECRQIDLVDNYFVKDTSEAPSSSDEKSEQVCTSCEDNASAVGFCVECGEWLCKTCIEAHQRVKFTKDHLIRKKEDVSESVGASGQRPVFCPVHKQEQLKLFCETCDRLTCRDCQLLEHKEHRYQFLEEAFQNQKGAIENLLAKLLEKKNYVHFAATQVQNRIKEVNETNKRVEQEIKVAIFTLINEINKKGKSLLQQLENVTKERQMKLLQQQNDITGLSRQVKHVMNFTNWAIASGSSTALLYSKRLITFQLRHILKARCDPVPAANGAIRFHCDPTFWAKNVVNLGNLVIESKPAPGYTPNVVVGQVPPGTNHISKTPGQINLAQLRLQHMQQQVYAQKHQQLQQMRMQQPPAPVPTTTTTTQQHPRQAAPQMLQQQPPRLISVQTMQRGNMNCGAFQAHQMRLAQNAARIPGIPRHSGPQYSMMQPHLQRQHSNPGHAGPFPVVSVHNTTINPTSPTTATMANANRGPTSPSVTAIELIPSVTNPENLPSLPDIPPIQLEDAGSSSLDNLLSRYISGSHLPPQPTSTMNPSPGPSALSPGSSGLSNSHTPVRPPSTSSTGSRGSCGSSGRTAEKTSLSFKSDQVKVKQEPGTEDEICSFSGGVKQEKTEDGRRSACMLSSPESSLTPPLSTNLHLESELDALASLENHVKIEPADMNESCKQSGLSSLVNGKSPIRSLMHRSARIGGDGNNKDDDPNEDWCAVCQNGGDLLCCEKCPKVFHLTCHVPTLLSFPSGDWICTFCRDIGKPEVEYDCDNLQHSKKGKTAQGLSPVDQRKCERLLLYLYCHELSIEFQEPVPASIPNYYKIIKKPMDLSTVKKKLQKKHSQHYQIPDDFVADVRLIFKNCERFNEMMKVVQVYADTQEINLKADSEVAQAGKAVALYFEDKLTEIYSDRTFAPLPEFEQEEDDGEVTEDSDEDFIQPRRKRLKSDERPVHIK

[11] = biological target: Peregrin (Homo sapiens) (UniProt P55201); details: Compound concentration 10.0 uM, Protein concentration 2.0 uM
[12] = biological target: Protein polybromo-1 (Homo sapiens) (UniProt Q86U86); details: Compound concentration 10.0 uM, Protein concentration 2.0 uM; remark: listed apart in the source
[13] = biological target: PH-interacting protein (Homo sapiens) (UniProt Q8WWQ0); details: Compound concentration 10.0 uM, Protein concentration 2.0 uM
[14] = biological target: Transcription initiation factor TFIID subunit 1-like (Homo sapiens) (UniProt Q8IZX4); details: Compound concentration 10.0 uM, Protein concentration 2.0 uM
[15] = biological target: Bromodomain and WD repeat-containing protein 3 (Homo sapiens) (UniProt Q6RI45); details: Compound concentration 10.0 uM, Protein concentration 2.0 uM
[16] = biological target: Histone acetyltransferase p300 (Homo sapiens) (UniProt Q09472); details: Compound concentration 10.0 uM, Protein concentration 2.0 uM
[17] = biological target: Transcription initiation factor TFIID subunit 1-like (Homo sapiens) (UniProt Q8IZX4); details: Compound concentration 10.0 uM, Protein concentration 2.0 uM; remark: listed apart in the source
[18] = biological target: Histone acetyltransferase KAT2B (Homo sapiens) (UniProt Q92831); details: Compound concentration 10.0 uM, Protein concentration 2.0 uM
[19] = biological target: ATPase family AAA domain-containing protein 2B (Homo sapiens) (UniProt Q9ULI0); details: Compound concentration 10.0 uM, Protein concentration 2.0 uM
[20] = biological target: Bromodomain and WD repeat-containing protein 1 (Homo sapiens) (UniProt Q9NSI6); details: Compound concentration 10.0 uM, Protein concentration 2.0 uM
[21] = biological target: T1, E3 ubiquitin-protein ligase TRIM33 (Homo sapiens); details: Compound concentration […], Protein concentration 200.0 uM
[22] = biological target: Nuclear body protein SP140-like protein (Homo sapiens) (UniProt Q9H930); details: Compound concentration 10.0 uM, Protein concentration 2.0 uM
[23] = biological target: Bromodomain adjacent to zinc finger domain protein 2A (Homo sapiens) (UniProt Q9UIF9); details: Compound concentration 10.0 uM, Protein concentration 2.0 uM
[24] = biological target: Nucleosome-remodeling factor subunit BPTF (Homo sapiens) (UniProt Q12830); details: Compound concentration 10.0 uM, Protein concentration 2.0 uM
[25] = biological target: Bromodomain-containing protein 9 (Homo sapiens) (UniProt Q9H8M2); details: Compound concentration 10.0 uM, Protein concentration 2.0 uM
[26] = biological target: Bromodomain-containing protein 3 (Homo sapiens) (UniProt Q15059); details: Compound concentration 10.0 uM, Protein concentration 2.0 uM; remark: listed apart in the source
[27] = biological target: Bromodomain and PHD finger-containing protein 3 (Homo sapiens) (UniProt Q9ULD4); details: Compound concentration 10.0 uM, Protein concentration 2.0 uM
[28] = biological target: Bromodomain-containing protein 7 (Homo sapiens) (UniProt Q9NPI1); details: Compound concentration 10.0 uM, Protein concentration 2.0 uM
[29] = biological target: Transcription intermediary factor 1-alpha (Homo sapiens) (UniProt O15164); assay: Thermal Shift Assay. Domain start/stop: N790-P971; details: Compound concentration 10.0 uM, Protein concentration 2.0 uM
[30] = biological target: Protein polybromo-1 (Homo sapiens) (UniProt Q86U86); details: Compound concentration 10.0 uM, Protein concentration 2.0 uM; remark: listed apart in the source
[31] = biological target: Bromodomain adjacent to zinc finger domain protein 2B (Homo sapiens) (UniProt Q9UIF8); details: Compound concentration 10.0 uM, Protein concentration 2.0 uM
[32] = biological target: Tyrosine-protein kinase BAZ1B (Homo sapiens) (UniProt Q9UIG0); details: Compound concentration 10.0 uM, Protein concentration 2.0 uM
[33] = biological target: Histone-lysine N-methyltransferase ASH1L (Homo sapiens) (UniProt Q9NR48); details: Compound concentration 10.0 uM, Protein concentration 2.0 uM
[34] = biological target: Bromodomain-containing protein 2 (Homo sapiens) (UniProt P25440); details: Compound concentration 10.0 uM, Protein concentration 2.0 uM; remark: listed apart in the source
[35] = biological target: Protein polybromo-1 (Homo sapiens) (UniProt Q86U86); details: Compound concentration 10.0 uM, Protein concentration 2.0 uM; remark: listed apart in the source
[36] = biological target: Chromatin remodeling regulator CECR2 (Homo sapiens) (UniProt Q9BXF3); details: Compound concentration 10.0 uM, Protein concentration 2.0 uM
[37] = biological target: Histone-lysine N-methyltransferase 2A (Homo sapiens) (UniProt Q03164); details: Compound concentration 10.0 uM, Protein concentration 2.0 uM
[38] = biological target: Chromatin remodeling regulator CECR2 (Homo sapiens) (UniProt Q9BXF3); details: Compound concentration 10.0 uM, Protein concentration 2.0 uM; remark: listed apart in the source
[39] = biological target: Bromodomain-containing protein 1 (Homo sapiens, UniProt O95696)
[40] = biological target: Peregrin (Homo sapiens) (UniProt P55201); details: Compound concentration 10.0 uM, Protein concentration 2.0 uM; remark: listed apart in the source
[41] = biological target: Bromodomain testis-specific protein (Homo sapiens) (UniProt Q58F21); details: Compound concentration 10.0 uM, Protein concentration 2.0 uM; remark: listed apart in the source
[42] = biological target: Bromodomain adjacent to zinc finger domain protein 1A (Homo sapiens) (UniProt Q9NRL2); details: Compound concentration 10.0 uM, Protein concentration 2.0 uM
[43] = biological target: ATPase family AAA domain-containing protein 2 (Homo sapiens) (UniProt Q6PL18); details: Compound concentration 10.0 uM, Protein concentration 2.0 uM
[44] = biological target: Histone acetyltransferase KAT2A (Homo sapiens) (UniProt Q92830); details: Compound concentration 10.0 uM, Protein concentration 2.0 uM
[45] = biological target: SWI/SNF-related matrix-associated actin-dependent regulator of chromatin subfamily A member 4 (Homo sapiens) (UniProt P51532); details: Compound concentration 10.0 uM, Protein concentration 2.0 uM
[46] = biological target: Protein polybromo-1 (Homo sapiens) (UniProt Q86U86); details: Compound concentration 10.0 uM, Protein concentration 2.0 uM; remark: listed apart in the source
[47] = biological target: Transcription intermediary factor 1-alpha (Homo sapiens) (UniProt O15164); details: Compound concentration 10.0 uM, Protein concentration 2.0 uM
[48] = biological target: SWI/SNF-related matrix-associated actin-dependent regulator of chromatin subfamily A member 2 (Homo sapiens) (UniProt P51531); details: Compound concentration 10.0 uM, Protein concentration 2.0 uM
[49] = biological target: Nuclear body protein SP140 (Homo sapiens) (UniProt Q13342); details: Compound concentration 10.0 uM, Protein concentration 2.0 uM
[50] = biological target: Protein polybromo-1 (Homo sapiens) (UniProt Q86U86); details: Compound concentration 10.0 uM, Protein concentration 2.0 uM; remark: listed apart in the source
[51] = biological target: CREB-binding protein (Homo sapiens) (UniProt Q92793); details: Compound concentration 10.0 uM, Protein concentration 2.0 uM

Sequence of Protein polybromo-1 (Homo sapiens) (Q86U86 whole entry, the tested form may be a part): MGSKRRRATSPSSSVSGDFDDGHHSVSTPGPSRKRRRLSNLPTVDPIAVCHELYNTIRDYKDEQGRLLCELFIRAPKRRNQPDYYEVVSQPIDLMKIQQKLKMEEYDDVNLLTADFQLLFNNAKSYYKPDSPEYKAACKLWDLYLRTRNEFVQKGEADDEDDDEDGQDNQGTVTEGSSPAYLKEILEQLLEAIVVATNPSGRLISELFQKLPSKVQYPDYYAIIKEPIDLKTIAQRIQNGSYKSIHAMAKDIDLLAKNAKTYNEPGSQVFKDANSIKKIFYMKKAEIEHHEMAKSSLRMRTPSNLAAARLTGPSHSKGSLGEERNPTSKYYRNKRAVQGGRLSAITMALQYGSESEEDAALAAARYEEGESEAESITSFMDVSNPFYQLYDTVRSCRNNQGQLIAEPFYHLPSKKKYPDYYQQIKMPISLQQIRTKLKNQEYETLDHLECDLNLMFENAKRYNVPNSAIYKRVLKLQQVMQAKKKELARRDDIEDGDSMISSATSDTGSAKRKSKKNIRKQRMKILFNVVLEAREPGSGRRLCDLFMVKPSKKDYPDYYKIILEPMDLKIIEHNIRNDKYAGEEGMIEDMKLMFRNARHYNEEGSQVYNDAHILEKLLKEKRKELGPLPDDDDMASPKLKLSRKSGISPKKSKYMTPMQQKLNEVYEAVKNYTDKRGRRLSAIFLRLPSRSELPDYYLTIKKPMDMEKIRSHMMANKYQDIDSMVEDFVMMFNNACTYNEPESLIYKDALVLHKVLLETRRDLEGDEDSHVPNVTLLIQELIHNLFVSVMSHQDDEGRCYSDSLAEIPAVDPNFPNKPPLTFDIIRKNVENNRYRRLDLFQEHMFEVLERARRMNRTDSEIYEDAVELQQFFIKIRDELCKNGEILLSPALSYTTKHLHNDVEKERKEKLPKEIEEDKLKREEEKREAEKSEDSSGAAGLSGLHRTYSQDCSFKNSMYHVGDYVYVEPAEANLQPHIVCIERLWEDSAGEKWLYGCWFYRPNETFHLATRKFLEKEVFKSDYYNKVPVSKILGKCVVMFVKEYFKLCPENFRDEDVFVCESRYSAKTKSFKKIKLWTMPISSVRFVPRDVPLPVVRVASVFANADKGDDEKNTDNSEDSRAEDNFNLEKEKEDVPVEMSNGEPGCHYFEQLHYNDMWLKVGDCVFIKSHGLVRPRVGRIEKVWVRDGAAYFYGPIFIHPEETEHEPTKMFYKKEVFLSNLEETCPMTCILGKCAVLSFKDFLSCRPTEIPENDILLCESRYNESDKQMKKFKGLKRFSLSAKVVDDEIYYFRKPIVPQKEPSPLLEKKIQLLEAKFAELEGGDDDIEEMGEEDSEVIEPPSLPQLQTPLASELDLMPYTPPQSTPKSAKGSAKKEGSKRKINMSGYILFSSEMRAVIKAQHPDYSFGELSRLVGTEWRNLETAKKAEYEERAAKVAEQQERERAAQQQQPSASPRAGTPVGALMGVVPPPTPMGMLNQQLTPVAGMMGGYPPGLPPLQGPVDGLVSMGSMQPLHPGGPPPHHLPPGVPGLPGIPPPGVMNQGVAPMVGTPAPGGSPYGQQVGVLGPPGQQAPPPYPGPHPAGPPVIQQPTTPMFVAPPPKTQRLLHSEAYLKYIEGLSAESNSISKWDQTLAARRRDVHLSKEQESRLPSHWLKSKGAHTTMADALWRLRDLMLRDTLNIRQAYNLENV
Sequence of Transcription intermediary factor 1-alpha (Homo sapiens) (O15164 whole entry): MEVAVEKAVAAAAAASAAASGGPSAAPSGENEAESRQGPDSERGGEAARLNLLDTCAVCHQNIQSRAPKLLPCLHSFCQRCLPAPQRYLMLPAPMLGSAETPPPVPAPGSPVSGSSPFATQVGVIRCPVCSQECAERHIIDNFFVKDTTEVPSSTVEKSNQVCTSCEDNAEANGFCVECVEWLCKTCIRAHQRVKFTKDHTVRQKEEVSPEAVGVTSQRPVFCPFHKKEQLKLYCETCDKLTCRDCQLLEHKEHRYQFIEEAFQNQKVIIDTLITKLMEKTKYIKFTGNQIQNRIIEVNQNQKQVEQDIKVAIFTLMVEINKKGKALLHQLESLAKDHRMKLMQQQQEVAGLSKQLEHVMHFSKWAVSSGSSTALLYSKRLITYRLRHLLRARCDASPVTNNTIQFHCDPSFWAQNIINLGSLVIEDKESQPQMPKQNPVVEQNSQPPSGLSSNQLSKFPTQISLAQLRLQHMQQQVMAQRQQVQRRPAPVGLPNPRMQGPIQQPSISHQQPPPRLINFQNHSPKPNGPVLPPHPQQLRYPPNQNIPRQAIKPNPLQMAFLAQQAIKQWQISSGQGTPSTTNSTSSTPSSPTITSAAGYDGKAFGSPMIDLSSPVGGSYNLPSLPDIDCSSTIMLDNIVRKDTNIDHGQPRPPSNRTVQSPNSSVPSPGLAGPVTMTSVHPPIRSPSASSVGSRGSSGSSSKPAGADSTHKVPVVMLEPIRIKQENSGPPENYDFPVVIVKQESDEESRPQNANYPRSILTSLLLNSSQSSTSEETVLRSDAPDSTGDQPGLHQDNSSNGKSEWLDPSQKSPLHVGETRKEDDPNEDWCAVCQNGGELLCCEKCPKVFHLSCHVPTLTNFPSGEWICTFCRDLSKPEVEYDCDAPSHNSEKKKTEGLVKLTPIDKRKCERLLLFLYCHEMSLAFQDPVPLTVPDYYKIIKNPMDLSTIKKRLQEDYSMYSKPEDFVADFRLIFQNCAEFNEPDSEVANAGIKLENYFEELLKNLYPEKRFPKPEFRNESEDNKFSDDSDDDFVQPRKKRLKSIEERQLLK
Sequence of Transcription initiation factor TFIID subunit 1-like (Homo sapiens) (Q8IZX4 whole entry): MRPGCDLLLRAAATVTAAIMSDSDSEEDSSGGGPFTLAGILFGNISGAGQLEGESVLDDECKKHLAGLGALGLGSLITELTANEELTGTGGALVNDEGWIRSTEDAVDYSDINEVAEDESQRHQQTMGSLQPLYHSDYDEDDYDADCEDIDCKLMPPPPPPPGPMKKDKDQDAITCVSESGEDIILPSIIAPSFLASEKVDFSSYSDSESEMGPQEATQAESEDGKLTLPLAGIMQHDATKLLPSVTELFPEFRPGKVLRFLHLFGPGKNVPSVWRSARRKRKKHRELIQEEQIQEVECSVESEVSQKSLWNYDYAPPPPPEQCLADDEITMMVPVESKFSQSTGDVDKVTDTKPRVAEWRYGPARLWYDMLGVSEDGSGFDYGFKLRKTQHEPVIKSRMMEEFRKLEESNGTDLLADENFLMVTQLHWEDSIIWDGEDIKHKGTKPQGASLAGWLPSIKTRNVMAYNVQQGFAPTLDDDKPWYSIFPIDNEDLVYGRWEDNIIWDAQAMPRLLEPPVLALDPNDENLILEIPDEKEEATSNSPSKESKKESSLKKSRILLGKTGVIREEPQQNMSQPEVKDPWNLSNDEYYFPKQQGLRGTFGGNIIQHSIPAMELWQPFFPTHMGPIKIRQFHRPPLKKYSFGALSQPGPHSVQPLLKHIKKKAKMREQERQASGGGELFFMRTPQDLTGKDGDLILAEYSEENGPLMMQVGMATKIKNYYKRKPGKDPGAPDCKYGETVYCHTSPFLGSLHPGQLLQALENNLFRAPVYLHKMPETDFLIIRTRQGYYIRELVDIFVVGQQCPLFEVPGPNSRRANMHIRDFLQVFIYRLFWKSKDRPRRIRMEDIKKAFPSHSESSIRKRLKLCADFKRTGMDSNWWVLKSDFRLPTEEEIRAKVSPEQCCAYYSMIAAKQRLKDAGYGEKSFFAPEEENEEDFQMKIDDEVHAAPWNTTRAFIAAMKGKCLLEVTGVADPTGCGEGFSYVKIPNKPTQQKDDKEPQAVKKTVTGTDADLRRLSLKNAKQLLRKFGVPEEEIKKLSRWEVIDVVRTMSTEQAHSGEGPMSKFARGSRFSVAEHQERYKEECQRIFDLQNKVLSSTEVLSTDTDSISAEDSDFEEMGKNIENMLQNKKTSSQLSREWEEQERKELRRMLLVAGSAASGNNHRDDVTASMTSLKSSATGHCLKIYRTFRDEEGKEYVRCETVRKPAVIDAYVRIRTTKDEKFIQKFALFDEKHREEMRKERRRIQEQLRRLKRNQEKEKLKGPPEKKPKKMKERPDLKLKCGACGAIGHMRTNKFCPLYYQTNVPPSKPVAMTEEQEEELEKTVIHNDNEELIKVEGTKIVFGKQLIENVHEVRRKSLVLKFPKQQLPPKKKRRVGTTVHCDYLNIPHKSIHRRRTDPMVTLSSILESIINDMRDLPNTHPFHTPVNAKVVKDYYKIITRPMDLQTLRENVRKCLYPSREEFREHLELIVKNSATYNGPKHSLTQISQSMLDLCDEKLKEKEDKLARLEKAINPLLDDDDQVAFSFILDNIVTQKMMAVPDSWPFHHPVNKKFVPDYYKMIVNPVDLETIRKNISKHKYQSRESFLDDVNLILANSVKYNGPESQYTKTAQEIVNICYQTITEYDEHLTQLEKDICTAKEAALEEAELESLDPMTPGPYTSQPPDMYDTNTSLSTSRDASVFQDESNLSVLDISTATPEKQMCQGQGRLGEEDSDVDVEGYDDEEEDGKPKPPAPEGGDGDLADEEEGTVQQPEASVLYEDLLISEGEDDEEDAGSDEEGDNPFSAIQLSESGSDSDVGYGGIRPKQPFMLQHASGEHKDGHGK
Sequence of Nuclear body protein SP140-like protein (Homo sapiens) (Q9H930 whole entry, the tested form may be a part): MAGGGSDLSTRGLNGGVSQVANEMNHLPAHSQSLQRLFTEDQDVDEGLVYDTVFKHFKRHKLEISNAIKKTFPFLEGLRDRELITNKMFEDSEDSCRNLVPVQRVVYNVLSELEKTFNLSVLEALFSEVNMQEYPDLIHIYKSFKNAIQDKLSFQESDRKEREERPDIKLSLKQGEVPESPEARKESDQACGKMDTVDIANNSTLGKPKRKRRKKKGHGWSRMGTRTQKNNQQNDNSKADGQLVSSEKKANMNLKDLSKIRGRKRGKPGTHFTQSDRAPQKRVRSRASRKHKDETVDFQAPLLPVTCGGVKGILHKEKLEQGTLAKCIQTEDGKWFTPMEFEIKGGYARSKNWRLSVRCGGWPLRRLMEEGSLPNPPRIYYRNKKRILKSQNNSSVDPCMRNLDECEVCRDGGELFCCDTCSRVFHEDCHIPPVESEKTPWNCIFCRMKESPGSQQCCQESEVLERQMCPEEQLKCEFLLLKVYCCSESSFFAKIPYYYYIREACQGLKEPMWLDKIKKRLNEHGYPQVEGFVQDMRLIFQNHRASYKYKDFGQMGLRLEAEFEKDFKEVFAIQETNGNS

ΔTm [1]: 0.36 °C and 0.33 °C | ΔTm [2]: 0.37 °C | ΔTm [3]: 1.19 °C | ΔTm [4]: 1.31 °C | ΔTm [5]: 2.03 °C | ΔTm [6]: 1.02 °C | ΔTm [7]: 0.53 °C | ΔTm [8]: 3.15 °C and 3.42 °C | ΔTm [9]: 0.35 °C | ΔTm ([10]; Protein concentration 2.0 uM): -0.61 °C | ΔTm ([10]; Protein concentration […]): -0.23 °C | ΔTm [11]: 7.61 °C and 6.99 °C and 6.03 °C | ΔTm [12]: 0.28 °C | ΔTm [13]: 0.36 °C | ΔTm [14]: 0.36 °C | ΔTm [15]: 1.67 °C | ΔTm [16]: 0.87 °C | ΔTm [17]: -1.08 °C and 1.68 °C | ΔTm [18]: 0.53 °C | ΔTm [19]: 0.21 °C | ΔTm [20]: -0.9 °C and 1.4 °C | inhibition [21]: 9.06% | ΔTm [22]: 0.82 °C | ΔTm [23]: 0.47 °C | ΔTm [24]: 0.79 °C and 1.4 °C | ΔTm [25]: 1.48 °C | ΔTm [26]: 1.93 °C | ΔTm [27]: 1.85 °C and 3.4 °C | ΔTm [28]: 1.42 °C | ΔTm [29]: 0.91 °C | ΔTm [30]: 0.5 °C | ΔTm [31]: 1.14 °C | ΔTm [32]: 0.53 °C | ΔTm [33]: 0.82 °C | ΔTm [34]: 1.41 °C | ΔTm [35]: 0.96 °C | ΔTm [36]: 0.5 °C | ΔTm [37]: 0.64 °C | ΔTm [38]: -0.25 °C | IC50 [39]: 0.128 µM | ΔTm [40]: 0.46 °C and 0.95 °C | ΔTm [41]: 1.5 °C | ΔTm [42]: 1.07 °C | ΔTm [43]: 0.15 °C | ΔTm [44]: 0.57 °C | ΔTm [45]: 0.35 °C | ΔTm [46]: 1.74 °C | ΔTm [47]: 1.16 °C and 2.05 °C | ΔTm [48]: 0.38 °C | ΔTm [49]: 0.32 °C | ΔTm [50]: 1.45 °C | ΔTm [51]: 1.22 °C and 1.19 °C
Compound: COc1cc2c(cc1NS(=O)(=O)c1ccc(Br)cc1C)n(C)c(=O)n2C
